Test results: the supplement of paper PMC10307832

Tests used:
Experiment in all cases: relative viability (nuclei count vs DMSO), 5 days (fraction); higher = more cells survive
Linifanib + Lapatinib = compound: Cc1ccc(F)c(NC(=O)Nc2ccc(-c3cccc4[nH]nc(N)c34)cc2)c1 [Linifanib] + CS(=O)(=O)CCNCc1ccc(-c2ccc3ncnc(Nc4ccc(OCc5cccc(F)c5)c(Cl)c4)c3c2)o1 [Lapatinib] (partner 2 µM)
Method in brief: (§1)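 Values are medians from duplicate plates. Each reflects relative viability, defined as the nuclei count of treated wells over that of vehicle wells. Lung cancer cell lines in 1536-well plates were pin-tool dosed one day after seeding with one drug alone or with a fixed anchor-drug dose plus five library-drug doses (not always all listed) in √10 steps, then fixed, stained and imaged at 4× after 5 days.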

Linifanib + OSI-027 = compound: Cc1ccc(F)c(NC(=O)Nc2ccc(-c3cccc4[nH]nc(N)c34)cc2)c1 [Linifanib] + COc1cccc2cc(-c3nc([C@H]4CC[C@H](C(=O)O)CC4)n4ncnc(N)c34)[nH]c12 [OSI-027] (partner 0.5 µM)
Method in brief: as §1

Linifanib + Bortezomib = compound: Cc1ccc(F)c(NC(=O)Nc2ccc(-c3cccc4[nH]nc(N)c34)cc2)c1 [Linifanib] + CC(C)C[C@H](NC(=O)[C@H](Cc1ccccc1)NC(=O)c1cnccn1)B(O)O [Bortezomib] (partner 0.002 µM)
Method in brief: as §1

Linifanib + Dasatinib = compound: Cc1ccc(F)c(NC(=O)Nc2ccc(-c3cccc4[nH]nc(N)c34)cc2)c1 [Linifanib] + Cc1nc(Nc2ncc(C(=O)Nc3c(C)cccc3Cl)s2)cc(N2CCN(CCO)CC2)n1 [Dasatinib] (partner 0.075 µM)
Method in brief: as §1

Linifanib + Pictilisib = compound: Cc1ccc(F)c(NC(=O)Nc2ccc(-c3cccc4[nH]nc(N)c34)cc2)c1 [Linifanib] + CS(=O)(=O)N1CCN(Cc2cc3nc(-c4cccc5[nH]ncc45)nc(N4CCOCC4)c3s2)CC1 [Pictilisib] (partner 1 µM)
Method in brief: as §1

Linifanib + Foretinib = compound: Cc1ccc(F)c(NC(=O)Nc2ccc(-c3cccc4[nH]nc(N)c34)cc2)c1 [Linifanib] + COc1cc2c(Oc3ccc(NC(=O)C4(C(=O)Nc5ccc(F)cc5)CC4)cc3F)ccnc2cc1OCCCN1CCOCC1 [Foretinib] (partner 0.25 µM)
Method in brief: as §1

| Cell Line | relative viability (Linifanib + Lapatinib; first compound 0.03162 µM) | relative viability (Linifanib + Lapatinib; first compound 0.1 µM) | relative viability (Linifanib + Lapatinib; first compound 0.3162 µM) | relative viability (Linifanib + OSI-027; first compound 0.03162 µM) | relative viability (Linifanib + OSI-027; first compound 0.1 µM) | relative viability (Linifanib + OSI-027; first compound 0.3162 µM) | relative viability (Linifanib + Bortezomib; first compound 0.03162 µM) | relative viability (Linifanib + Bortezomib; first compound 0.1 µM) | relative viability (Linifanib + Bortezomib; first compound 0.3162 µM) | relative viability (Linifanib + Dasatinib; first compound 0.03162 µM) | relative viability (Linifanib + Dasatinib; first compound 0.1 µM) | relative viability (Linifanib + Dasatinib; first compound 0.3162 µM) | relative viability (Linifanib + Pictilisib; first compound 0.03162 µM) | relative viability (Linifanib + Pictilisib; first compound 0.1 µM) | relative viability (Linifanib + Pictilisib; first compound 0.3162 µM) | relative viability (Linifanib + Foretinib; first compound 0.03162 µM) | relative viability (Linifanib + Foretinib; first compound 0.1 µM) | relative viability (Linifanib + Foretinib; first compound 0.3162 µM) |
| --- | --- | --- | --- | --- | --- | --- | --- | --- | --- | --- | --- | --- | --- | --- | --- | --- | --- | --- |
| NCI-H2087 | 1.15 | 1.2 | 0.672 | 0.643 | 0.585 | 0.563 | 1.06 | 0.608 | 0.849 | 1.12 | 1.22 | 0.787 | 0.977 | 0.989 | 0.825 | 1.08 | 1.26 | 0.993 |
| HARA | 0.815 | 0.905 | 0.73 | 0.569 | 0.571 | 0.498 | 1.14 | 1.11 | 1.06 | 0.234 | 0.335 | 0.285 | 0.337 | 0.52 | 0.3 | 1.09 | 1.06 | 0.835 |
| COR-L 105 | 0.388 | 0.381 | 0.333 | 0.698 | 0.874 | 0.602 | 0.954 | 0.851 | 0.735 | 0.416 | 0.361 | 0.322 | 0.422 | 0.437 | 0.388 | 0.968 | 1.08 | 0.919 |
| NCI-H1944 | 0.943 | 0.881 | 0.645 | 0.405 | 0.462 | 0.409 | – | – | – | 0.204 | 0.215 | 0.216 | 0.368 | 0.378 | 0.341 | 0.928 | 0.889 | 0.876 |
| LOU-NH91 | 0.772 | 0.828 | 0.747 | 0.697 | 0.796 | 0.709 | 0.47 | 0.548 | 0.463 | 0.61 | 0.612 | 0.558 | 0.498 | 0.523 | 0.557 | 0.942 | 0.981 | 0.884 |
| EMC-BAC-2 | 0.901 | 0.992 | 0.844 | 0.439 | 0.361 | 0.375 | 1.11 | 1.13 | 1.12 | 0.341 | 0.347 | 0.406 | 0.555 | 0.59 | 0.523 | 1.02 | 1.05 | 1.03 |
| BEN | 0.6 | 0.767 | 0.713 | 0.28 | 0.295 | 0.311 | 0.723 | 0.975 | 0.778 | 0.318 | 0.34 | 0.316 | 0.516 | 0.606 | 0.581 | 0.718 | 0.774 | 0.608 |
| EKVX | 0.209 | 0.24 | 0.222 | 0.756 | 0.707 | 0.712 | 0.863 | 1.03 | 0.698 | 0.662 | 0.662 | 0.547 | 0.508 | 0.512 | 0.454 | 0.787 | 0.886 | 0.686 |
| NCI-H1666 | 0.792 | 0.649 | 0.705 | 0.882 | 0.903 | 0.784 | 0.892 | 0.756 | 0.643 | 0.856 | 0.833 | 0.779 | 0.492 | 0.419 | 0.402 | 0.923 | 0.969 | 0.998 |
| UMC-11 | 1 | 1.1 | 1.06 | 0.446 | 0.465 | 0.45 | 0.961 | 0.731 | 0.668 | 0.42 | 0.491 | 0.466 | 0.859 | 0.865 | 0.819 | 0.986 | 1.16 | 1.04 |
| SK-MES-1 | 0.456 | 0.534 | 0.384 | 0.625 | 0.613 | 0.595 | – | – | – | 0.336 | 0.455 | 0.388 | 0.369 | 0.338 | 0.398 | 0.986 | 1 | 0.827 |
| HCC-827 | 0.19 | 0.173 | 0.191 | 0.82 | 0.93 | 0.716 | 1.04 | 0.991 | 0.977 | 0.272 | 0.32 | 0.268 | 0.898 | 0.96 | 0.933 | 1.06 | 1.11 | 1.1 |
| LK-2 | 0.931 | 1.06 | 0.915 | 0.212 | 0.21 | 0.261 | – | – | – | 0.308 | 0.349 | 0.403 | 0.495 | 0.537 | 0.489 | 1.12 | 1.33 | 1.08 |
| ABC-1 | 1.15 | 1.13 | 0.93 | 0.506 | 0.433 | 0.381 | 0.25 | 0.343 | 0.285 | 0.546 | 0.555 | 0.589 | 0.759 | 0.953 | 0.742 | 1.02 | 1.08 | 0.921 |
| NCI-H2085 | 0.809 | 0.83 | 0.734 | 0.842 | 0.733 | 0.758 | 1.07 | 1.06 | 0.971 | 0.252 | 0.239 | 0.268 | 0.426 | 0.711 | 0.484 | 0.979 | 1.12 | 0.806 |
| NCI-H1792 | 0.961 | 0.973 | 0.891 | 0.526 | 0.701 | 0.663 | 0.93 | 0.975 | 0.937 | 0.622 | 0.774 | 0.819 | 0.213 | 0.311 | 0.333 | – | – | – |
| HCC-44 | 1.04 | 1 | 0.989 | 0.62 | 0.596 | 0.478 | 0.925 | 0.915 | 0.818 | – | – | – | 0.605 | 0.674 | 0.595 | – | – | – |
| NCI-H1650 | 0.797 | 0.9 | 0.721 | 0.752 | 0.78 | 0.585 | 0.216 | 0.212 | 0.199 | 0.327 | 0.348 | 0.252 | 0.661 | 0.671 | 0.5 | 0.966 | 1.33 | 1.07 |
